Experimental data: PubChem BioAssay AID248 (DTP/NCI, 2004)
Where “and” joins values, the source holds several entries; their conditions need not be identical. Identical values can stand only once. Toxic doses and inconclusive results are not listed. No stated cut-off is given here; in the data, active means T/C of 150% or more; inactive means T/C below 125%.

Test system: L1210 leukemia ip in BDF1 mice, survival T/C
Experiment: NCI In Vivo Anticancer Drug Screen. Data for tumor model L1210 Leukemia (intraperitoneal) in B6D2F1 (BDF1) mice
Details: endpoint: mean survival time, higher = longer survival
Outline: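 Ratio derived from survival: compound-dosed mice over vehicle-dosed mice, all bearing a transplantable tumor.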

[1] = dose: 100.0 mg/kg/injection, schedule: Q01DX009 (ip), vehicle: Klucel (hydroxypropylcellulose) (HPC)

Measured: T/C

Cc1c[n+](CC(=O)c2ccccc2)cn1CC(=O)c1ccccc1
inactive: dose: 25.0 mg/kg/injection, schedule: Q01DX009 (ip), vehicle: Klucel (hydroxypropylcellulose) (HPC) 102 % of control and 105 % of control | dose: 25.0 mg/kg/injection, schedule: Q04DX002 (ip), vehicle: Klucel (hydroxypropylcellulose) (HPC) 95 % of control and 102 % of control | dose: 50.0 mg/kg/injection, schedule: Q01DX009 (ip), vehicle: Klucel (hydroxypropylcellulose) (HPC) 100 % of control and 116 % of control | dose: 50.0 mg/kg/injection, schedule: Q04DX002 (ip), vehicle: Klucel (hydroxypropylcellulose) (HPC) 95 % of control and 100 % of control | [1] 102 % of control and 108 % of control

[O-]/[N+](=N\O)c1ccc(/[N+]([O-])=N\O)cc1
inactive: dose: 12.5 mg/kg/injection, schedule: Q01DX009 (ip), vehicle: saline with Tween-80 88 % of control | dose: 25.0 mg/kg/injection, schedule: Q01DX009 (ip), vehicle: saline with Tween-80 88 % of control | dose: 50.0 mg/kg/injection, schedule: Q01DX009 (ip), vehicle: saline with Tween-80 97 % of control and 107 % of control and 91 % of control | dose: 100.0 mg/kg/injection, schedule: Q01DX001 (ip), vehicle: saline with Tween-80 95 % of control | dose: 100.0 mg/kg/injection, schedule: Q01DX009 (ip), vehicle: saline with Tween-80 102 % of control | dose: 200.0 mg/kg/injection, schedule: Q01DX001 (ip), vehicle: saline with Tween-80 98 % of control | dose: 200.0 mg/kg/injection, schedule: Q01DX009 (ip), vehicle: saline with Tween-80 87 % of control

C=CCOc1ccc2c(cc1=O)C(NC(C)=O)CCc1cc(OC)c(OC)c(OC)c1-2 (stereo not drawn)
inactive: dose: 100.0 mg/kg/injection, schedule: Q01DX001 (ip), vehicle: carboxymethylcellulose (CMC) 114 % of control | dose: 200.0 mg/kg/injection, schedule: Q01DX001 (ip), vehicle: carboxymethylcellulose (CMC) 120 % of control | dose: 400.0 mg/kg/injection, schedule: Q01DX001 (ip), vehicle: carboxymethylcellulose (CMC) 117 % of control

CCOC(=O)c1ccc(NC(=O)C2CC2)cc1
inactive: [1] 113 % of control | dose: 200.0 mg/kg/injection, schedule: Q01DX009 (ip), vehicle: Klucel (hydroxypropylcellulose) (HPC) 109 % of control | dose: 400.0 mg/kg/injection, schedule: Q01DX009 (ip), vehicle: Klucel (hydroxypropylcellulose) (HPC) 104 % of control
